In paper PMC11206987, “Investigation of the Efficacy of Benzylidene-3-methyl-2-thioxothiazolidin-4-one Analogs with Antioxidant Activities on the Inhibition of Mushroom and Mammal Tyrosinases” (Molecules, 2024):
Like-named read-outs stand apart in the source and are kept apart here.

What was measured:
[1] = target: mushroom tyrosinase; assay: Mushroom tyrosinase inhibition assay (dopachrome, 475 nm); type: biochemical; details: for IC50: mushroom tyrosinase
Procedure: The ability of the BMTTZD analogs to inhibit mushroom tyrosinase was evaluated in the presence of L-dopa and L-tyrosine as previously described.

[2] = target: mushroom tyrosinase (Agaricus bisporus, UniProt C7FF04); assay: Kinetic study of mushroom tyrosinase inhibition (Lineweaver–Burk and Dixon plots); type: biochemical; details: for type of tyrosinase inhibition (Lineweaver–Burk plots): substrate L-dopa 0.5–16 mM
Sequence of mushroom tyrosinase (Agaricus bisporus, UniProt C7FF04) (C7FF04 1-392): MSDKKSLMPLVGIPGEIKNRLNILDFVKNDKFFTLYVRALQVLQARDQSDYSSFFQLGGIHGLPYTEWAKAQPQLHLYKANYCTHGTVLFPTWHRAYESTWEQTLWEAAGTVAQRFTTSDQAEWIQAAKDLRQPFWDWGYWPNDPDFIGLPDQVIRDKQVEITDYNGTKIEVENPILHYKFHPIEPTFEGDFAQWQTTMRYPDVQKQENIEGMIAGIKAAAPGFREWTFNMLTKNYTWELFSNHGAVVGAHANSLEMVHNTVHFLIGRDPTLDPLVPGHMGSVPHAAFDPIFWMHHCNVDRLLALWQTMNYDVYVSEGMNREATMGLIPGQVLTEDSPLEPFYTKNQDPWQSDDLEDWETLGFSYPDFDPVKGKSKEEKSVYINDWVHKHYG
Procedure: The initial rate of dopachrome generation was examined at various BMTTZD analog concentrations (0, 1.5, 3, and 6 µM for analog 1; 0, 2, 4, and 8 µM for analogs 2 and 5; and 0, 0.05, 0.1, and 0.2 µM for 3) with 0.5, 1, 2, 4, 8, or 16 mM L-dopa as substrates using mushroom tyrosinase. Plotting the reciprocal of the dopachrome formation rate against the inverse of the L-dopa concentration produced Lineweaver–Burk plots (Figure 2). Each Lineweaver–Burk plot created four straight lines with different slopes. For analogs 1 and 3, the four straight lines met at a point on the y-axis, whereas for analogs 2 and 5, the four straight lines converged at a point in the second quadrant.
The Dixon plots produced lines that met in the second quadrant. The x-coordinate of the convergence position represents the inhibition constant (Ki) of the ligand.
Lineweaver–Burk (L-B) plots were acquired for the kinetic analysis of analogs against mushroom tyrosinase as previously described. In brief, 10 µL of a solution of DMSO and BMTTZD analogs 1–3 or 5 (final concentrations: 0, 1.5, 3, and 6 µM for analog 1; 0, 2, 4, and 8 µM for analogs 2 and 5; and 0, 0.05, 0.1, and 0.2 µM for analog 3) in each well of a 96-well plate was mixed with 20 µL of aqueous mushroom tyrosinase solution (200 units/mL) and 170 µL of an aqueous substrate mixture (various concentrations of L-dopa (final concentrations: 16, 8, 4, 2, 1 and 0.5 mM) and 17.2 mM sodium phosphate buffer (pH 6.5)). During incubation (15 min at 37 °C), the increase in the well absorbance (ΔOD475/min) was calculated at 1 min intervals utilizing a VersaMax® reader.

[3] = tested on: B16F10 cells; assay: Cell cytotoxicity test (EZ-Cytox); type: cell-based, murine; details: 2.5–20 µM, 48 and 72 h
Procedure: Because analogs 1–3 and 5 exerted potent mushroom tyrosinase inhibitory activities, their effects on anti-melanogenic and cellular tyrosinase activities were evaluated in B16F10 murine cells. Prior to examining their cellular activity, their cell viabilities were investigated. Cell viability was evaluated at 48 and 72 h after treatment with five different concentrations of analogs.
The effect on B16F10 cytotoxicity was assessed following a previously described method. Cells (1 × 10^4 cells/well of a 96-well plate) were cultivated for 24 h with 5% CO2 at 37 °C. The cells were exposed to the BMTTZD analogs (test concentrations: 20, 10, 5, 2.5, and 0 µM) and cultivated with 5% CO2 at 37 °C for 72 h. An EZ-Cytox solution (10 µL; EZ-500, DoGenBio, Seoul, Republic of Korea) was exposed to each well, and the plate was cultivated for 2 h. Cell viability was calculated from the well absorbance measured at 450 nm utilizing a reader (VersaMax®).

[4] = target: T1, B16F10 cellular tyrosinase (Mus musculus, UniProt P11344); assay: Cellular tyrosinase activity assay in B16F10 cells stimulated with IBMX plus α-MSH; type: cell-based, murine; details: 72 h; for effect on stimulator-induced cellular tyrosinase activity: 5, 10, 20 µM, IBMX plus α-MSH
T1 construct: host or cells: B16F10 cells
T1 sequence (P11344 19-533): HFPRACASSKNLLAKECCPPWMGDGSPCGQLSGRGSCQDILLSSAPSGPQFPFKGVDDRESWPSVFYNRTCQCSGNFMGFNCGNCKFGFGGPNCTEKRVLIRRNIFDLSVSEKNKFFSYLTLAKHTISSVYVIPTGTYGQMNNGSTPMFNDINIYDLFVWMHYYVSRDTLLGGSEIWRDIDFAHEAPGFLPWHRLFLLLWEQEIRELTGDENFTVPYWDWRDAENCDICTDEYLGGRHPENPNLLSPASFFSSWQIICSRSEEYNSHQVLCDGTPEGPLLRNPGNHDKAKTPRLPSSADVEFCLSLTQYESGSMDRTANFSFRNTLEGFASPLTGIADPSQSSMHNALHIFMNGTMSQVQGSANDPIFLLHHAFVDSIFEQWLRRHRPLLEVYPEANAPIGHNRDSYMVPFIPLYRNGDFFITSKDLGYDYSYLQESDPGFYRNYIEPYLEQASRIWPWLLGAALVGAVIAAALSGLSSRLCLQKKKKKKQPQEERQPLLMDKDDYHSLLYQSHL
Procedure: Analogs 1, 3, and 5 were exposed to B16F10 cells at various concentrations (20, 10, 5, and 0 µM) before exposure to IBMX (200 µM; 3-isobutyl-1-methylxanthine) and α-MSH (1 µM; α-melanocyte-stimulating hormone). After incubation (72 h), B16F10 cellular tyrosinase activity was determined. […] It was examined whether the cellular tyrosinase inhibition of the BMTTZD analogs could influence B16F10 cellular melanin contents.
Effects on B16F10 tyrosinase inhibition were evaluated as previously described. A 6-well plate containing 1 × 10^5 B16F10 cells/well was cultivated for 23 h under conditions identical to those of the cell culture. […] The cells were cultivated for 72 h. After washing 2 times with PBS, the cells were lysed in a 100 µL lysis buffer, including phenylmethylsulfonyl fluoride (5 µL; 1 mM), Triton X-100 (5 µL; 1%), and phosphate buffer (90 µL; 50 mM (pH 6.5)). After 30 min incubation at −80 °C, the cell lysates were centrifuged at 4 °C for 30 min. The supernatants (80 µL) of the lysates were moved to each well of a microplate and mixed with 20 µL 10 mM L-dopa.

[5] = tested on: B16F10 cells; assay: Melanin content assay in B16F10 cells; type: cell-based, murine; details: 72 h; for intracellular melanin contents compared with kojic acid: 20 µM; for effect on intracellular melanin contents enhanced by IBMX plus α-MSH: 5, 10, 20 µM
Procedure: We examined whether the ability of analogs 1, 3, and 5 to inhibit intracellular tyrosinase activity could affect intracellular melanin levels. B16F10 cells were utilized as mammalian cells. IBMX and α-MSH were used at 200 µM and 1 µM, respectively, to increase melanin biosynthesis. […] For the intracellular melanin content determination, the absorbance at 405 nm was evaluated after 72 h of incubation.
The effect of BMTTZD analogs on melanin biosynthesis was investigated following a previously described method. A 6-well microplate containing 1 × 10^5 B16F10 cells/well was cultivated for 23 h under conditions identical to those of the cell culture. […] After exposure to IBMX and α-MSH, B16F10 cells were cultivated for 72 h at 37 °C. The cells were rinsed 2 times with PBS, treated with 1N-NaOH aqueous solution (100 µL), and cultivated at 60 °C for 1 h. The lysates were moved to a microplate. At 405 nm, the well absorbance was measured utilizing a VersaMax® reader. Each experiment was carried out three times independently.

[6] = target: T1, B16F10 cellular tyrosinase; assay: In situ cellular tyrosinase activity assay using L-dopa staining; type: cell-based, murine; details: 72 h; for effect on stimulator-raised in situ intracellular tyrosinase activity (L-dopa staining): analogs 5, 10, 20 µM, kojic acid 20 µM
Procedure: Because tyrosinase plays a critical role in melanogenesis, in situ intracellular tyrosinase activity was measured. The in situ intracellular tyrosinase activity was evaluated in B16F10 cells following a previously reported procedure. Stimulators (α-MSH plus IBMX) were exposed to cells to raise tyrosinase activity levels, and analogs 1, 3, and 5 were treated at 20, 10, and 5 µM for 72 h. After fixation and permeabilization using paraformaldehyde and Triton X-100, the cells were stained with L-dopa.
A 24-well plate containing 1 × 10^3 B16F10 cells/well was cultivated for 24 h under conditions identical to those of the cell culture. […] The cells were then cultivated under conditions identical to those of the cell culture for 72 h. Cultivated cells were fixed for 40 min with paraformaldehyde (4%), washed 2 times with PBS, and permeabilized with Triton X-100 (0.1%) for 2 min. After washing 2 times with PBS, the cells in the 24-well plate were stained with a 2 mM L-dopa aqueous solution (500 µL/well) for 2 h at 37 °C. Staining was photographed and analyzed utilizing a camera connected to a microscope (Motic, Hong Kong).

[7] = DPPH radical scavenging activity assay; details: 500 µM
Procedure: First, the ability of BMTTZD analogs 1–8 to scavenge DPPH radicals was examined using L-ascorbic acid (vitamin C; positive control). All samples were tested at 500 µM.
The ability of the BMTTZD analogs to scavenge DPPH radicals was evaluated as previously reported. To each well of a 96-well plate containing analogs 1–8 (5 mM in […]; 20 µL) was added a DPPH solution (0.2 mM in methanol; 180 µL). The mixture was kept in a place without light for 30 min at 25°C to generate DPPH radicals. The well absorbance at 517 nm was measured utilizing a VersaMax® reader. The ability of the analogs to remove DPPH radicals was compared to that of vitamin C.

[8] = ABTS+ radical scavenging activity assay; details: 100 µM
Procedure: Second, the ability of BMTTZD analogs to scavenge ABTS^+ radicals was examined. ABTS^+ radicals were obtained via the oxidation of ABTS using potassium persulfate. All samples (Trolox (positive control) and 1–8) were tested at 100 µM.
The ability of the BMTTZD analogs to scavenge ABTS^+ radicals was assessed as previously described, with minor modifications. To a 50 mL tube were added 20 mL aqueous K2S2O8 solution (2.45 mM) and 20 mL aqueous ABTS solution (7 mM). The combined mixture was placed at 22 °C in a place without light for 17 h to generate the ABTS^+ radicals. For adequate absorbance control (0.70 ± 0.02 at 734 nm), methanol was added to the combined mixture. Test compounds (Trolox and analogs 1–8; 10 µL in 10% DMSO/90% EtOH [v/v] solution) were mixed with 90 µL ABTS^+ radical solution. After storage in a place without light for 2 min, the well absorbance at 734 nm was acquired for 10 min every 1 min by using a microplate reader (VersaMax®). All test compounds were tested at 100 µM. The activity of the analogs was compared to that of Trolox.

[9] = substrate L-dopa, read-out: IC50 (Mean ± SEM, µM) L-Dopa
[10] = substrate L-tyrosine, read-out: IC50 (Mean ± SEM, µM) L-Tyrosine
[11] = analog at highest concentration tested (20 µM)

SMILES | IC50 [1, 9] [µM] | IC50 [1, 10] [µM] | type of tyrosinase inhibition (Lineweaver–Burk plots) [2] | cytotoxicity (cell viability) [3] | effect on stimulator-induced cellular tyrosinase activity [4] | cellular tyrosinase inhibition compared with kojic acid (20 µM) [4, 11] | intracellular melanin contents compared with kojic acid [5] | effect on intracellular melanin contents enhanced by IBMX plus α-MSH [5] | effect on stimulator-raised in situ intracellular tyrosinase activity (L-dopa staining) [6] | DPPH radical scavenging activity [7] [%] | tyrosinase inhibition, fold stronger than kojic acid ([1]; substrate L-dopa) | ABTS^+ radical scavenging activity [8] [%] | reduction in tyrosinase inhibition relative to analog 3 ([1]; substrate L-dopa) [fold] | tyrosinase inhibition, times stronger than kojic acid ([1]; substrate L-tyrosine) | Ki ([2]; substrate L-dopa, read-out: inhibition constant (Ki) from Dixon plots) [µM] | cellular tyrosinase inhibition compared with kojic acid (20 µM) ([4]; analog at 10 µM) | in situ intracellular tyrosinase inhibition compared with kojic acid ([6]; 20 µM)
COc1ccc(/C=C2\SC(=S)N(C)C2=O)cc1O [Analog 5, (Z)-5-(3-Hydroxy-4-methoxybenzylidene)-3-methyl-2-thioxothiazolidin-4-one] | 13.8 ± 2.64 | 3.6 ± 0.52 | mixed-type inhibitors | did not exhibit cytotoxicity at ≤20 µM | concentration-dependently and significantly reduced | stronger inhibitory effects than kojic acid | levels similar to those in treatment with kojic acid | significantly reduced the melanin contents | concentration-dependently reduced the stimulator-enhanced intracellular tyrosinase inhibition |  |  |  |  |  |  |  | 
COc1cc(/C=C2\SC(=S)N(C)C2=O)ccc1O [Analog 4, (Z)-5-(4-Hydroxy-3-methoxybenzylidene)-3-methyl-2-thioxothiazolidin-4-one] | > 200 | 54.8 ± 16.1 |  |  |  |  |  |  |  | 82 |  |  |  |  |  |  | 
CN1C(=O)/C(=C/c2ccc(O)c(O)c2)SC1=S [Analog 2, (Z)-5-(3,4-Dihydroxybenzylidene)-3-methyl-2-thioxothiazolidin-4-one] | 6.18 ± 0.17 | 3.77 ± 0.47 | mixed-type inhibitors | significant cytotoxicity in a concentration-dependent manner, even at 2.5 µM |  |  |  |  |  | 93 | four times stronger than kojic acid | 92 |  |  |  |  | 
CN1C(=O)/C(=C/c2ccc(O)cc2)SC1=S [Analog 1, (Z)-5-(4-Hydroxybenzylidene)-3-methyl-2-thioxothiazolidin-4-one] | 17.6 ± 0.62 | 3.82 ± 0.22 | competitive inhibitors | did not exhibit cytotoxicity at ≤20 µM | concentration-dependently and significantly reduced | stronger inhibitory effects than kojic acid | levels similar to those in treatment with kojic acid | significantly reduced the melanin contents | concentration-dependently reduced the stimulator-enhanced intracellular tyrosinase inhibition |  |  |  | 17 | five times more strongly than kojic acid | 6.2 | slightly more strongly than kojic acid | weaker intracellular tyrosinase inhibition efficacy than kojic acid
O=C1O[C@H]([C@@H](O)CO)C(O)=C1O [L-Ascorbic acid, reference compound] |  |  |  |  |  |  |  |  |  | 97 |  |  |  |  |  |  | 
